Experimental data: ChEMBL document CHEMBL4765227, “Hit to lead optimization of a series of N-[4-(1,3-benzothiazol-2-yl)phenyl]acetamides as monoacylglycerol lipase inhibitors with potential anticancer activity” (Eur J Med Chem, 2016)

What was measured:
Format in all cases: functional
Details in all cases: read-out: GI
NCI-H522 = test: Growth inhibition of human NCI-H522 cells at 10 uM incubated for 48 hrs by sulforhodamine B assay relative to control
SF-539 = test: Growth inhibition of human SF-539 cells at 10 uM incubated for 48 hrs by sulforhodamine B assay relative to control
MDA-MB-468 = test: Growth inhibition of human MDA-MB-468 cells at 10 uM incubated for 48 hrs by sulforhodamine B assay relative to control
OVCAR-4 = test: Growth inhibition of human OVCAR-4 cells at 10 uM incubated for 48 hrs by sulforhodamine B assay relative to control
HCT-15 = test: Growth inhibition of human HCT-15 cells at 10 uM incubated for 48 hrs by sulforhodamine B assay relative to control
UACC-62 = test: Growth inhibition of human UACC-62 cells at 10 uM incubated for 48 hrs by sulforhodamine B assay relative to control
SF-295 = test: Growth inhibition of human SF-295 cells at 10 uM incubated for 48 hrs by sulforhodamine B assay relative to control
LOX IMVI = test: Growth inhibition of human LOX IMVI cells at 10 uM incubated for 48 hrs by sulforhodamine B assay relative to control
NCI-H23 = test: Growth inhibition of human NCI-H23 cells at 10 uM incubated for 48 hrs by sulforhodamine B assay relative to control
SN12C = test: Growth inhibition of human SN12C cells at 10 uM incubated for 48 hrs by sulforhodamine B assay relative to control
RPMI-8226 = test: Growth inhibition of human RPMI-8226 cells at 10 uM incubated for 48 hrs by sulforhodamine B assay relative to control
SK-MEL-5 = test: Growth inhibition of human SK-MEL-5 cells at 10 uM incubated for 48 hrs by sulforhodamine B assay relative to control
M14 = test: Growth inhibition of human M14 cells at 10 uM incubated for 48 hrs by sulforhodamine B assay relative to control
CCRF-CEM = test: Growth inhibition of human CCRF-CEM cells at 10 uM incubated for 48 hrs by sulforhodamine B assay relative to control
HCT-116 = test: Growth inhibition of human HCT-116 cells at 10 uM incubated for 48 hrs by sulforhodamine B assay relative to control
ACHN = test: Growth inhibition of human ACHN cells at 10 uM incubated for 48 hrs by sulforhodamine B assay relative to control
RXF 393 = test: Growth inhibition of human RXF 393 cells at 10 uM incubated for 48 hrs by sulforhodamine B assay relative to control
HT-29 = test: Growth inhibition of human HT-29 cells at 10 uM incubated for 48 hrs by sulforhodamine B assay relative to control
K562 = test: Growth inhibition of human K562 cells at 10 uM incubated for 48 hrs by sulforhodamine B assay relative to control
MDA-MB-435 = test: Growth inhibition of human MDA-MB-435 cells at 10 uM incubated for 48 hrs by sulforhodamine B assay relative to control
MDA-MB-231 = test: Growth inhibition of human MDA-MB-231 cells at 10 uM incubated for 48 hrs by sulforhodamine B assay relative to control
SF-268 = test: Growth inhibition of human SF-268 cells at 10 uM incubated for 48 hrs by sulforhodamine B assay relative to control
OVCAR-8 = test: Growth inhibition of human OVCAR-8 cells at 10 uM incubated for 48 hrs by sulforhodamine B assay relative to control
UO-31 = test: Growth inhibition of human UO-31 cells at 10 uM incubated for 48 hrs by sulforhodamine B assay relative to control
T47D = test: Growth inhibition of human T47D cells at 10 uM incubated for 48 hrs by sulforhodamine B assay relative to control
MOLT-4 = test: Growth inhibition of human MOLT-4 cells at 10 uM incubated for 48 hrs by sulforhodamine B assay relative to control
SNB-19 = test: Growth inhibition of human SNB-19 cells at 10 uM incubated for 48 hrs by sulforhodamine B assay relative to control
HL-60(TB) = test: Growth inhibition of human HL-60(TB) cells at 10 uM incubated for 48 hrs by sulforhodamine B assay relative to control
SR = test: Growth inhibition of human SR cells at 10 uM incubated for 48 hrs by sulforhodamine B assay relative to control
HOP-92 = test: Growth inhibition of human HOP-92 cells at 10 uM incubated for 48 hrs by sulforhodamine B assay relative to control
DU-145 = test: Growth inhibition of human DU-145 cells at 10 uM incubated for 48 hrs by sulforhodamine B assay relative to control
BT-549 = test: Growth inhibition of human BT-549 cells at 10 uM incubated for 48 hrs by sulforhodamine B assay relative to control
TK-10 = test: Growth inhibition of human TK-10 cells at 10 uM incubated for 48 hrs by sulforhodamine B assay relative to control
SK-OV-3 = test: Growth inhibition of human SK-OV-3 cells at 10 uM incubated for 48 hrs by sulforhodamine B assay relative to control
KM12 = test: Growth inhibition of human KM12 cells at 10 uM incubated for 48 hrs by sulforhodamine B assay relative to control
U-251 = test: Growth inhibition of human U-251 cells at 10 uM incubated for 48 hrs by sulforhodamine B assay relative to control
SK-MEL-28 = test: Growth inhibition of human SK-MEL-28 cells at 10 uM incubated for 48 hrs by sulforhodamine B assay relative to control
UACC-257 = test: Growth inhibition of human UACC-257 cells at 10 uM incubated for 48 hrs by sulforhodamine B assay relative to control
MCF7 = test: Growth inhibition of human MCF7 cells at 10 uM incubated for 48 hrs by sulforhodamine B assay relative to control
HOP-62 = test: Growth inhibition of human HOP-62 cells at 10 uM incubated for 48 hrs by sulforhodamine B assay relative to control
PC-3 = test: Growth inhibition of human PC-3 cells at 10 uM incubated for 48 hrs by sulforhodamine B assay relative to control
A549 = test: Growth inhibition of human A549/ATCC cells at 10 uM incubated for 48 hrs by sulforhodamine B assay relative to control
HCC 2998 = test: Growth inhibition of human HCC 2998 cells at 10 uM incubated for 48 hrs by sulforhodamine B assay relative to control
SNB-75 = test: Growth inhibition of human SNB-75 cells at 10 uM incubated for 48 hrs by sulforhodamine B assay relative to control

O=C(CN1C(=O)C(=O)c2ccccc21)Nc1ccc(-c2nc3ccccc3s2)cc1
inhibition of growth at 10 µM (NCI-H522): 4.88%
inhibition of growth at 10 µM (SF-539): -0.12%
inhibition of growth at 10 µM (MDA-MB-468): 72.6%
inhibition of growth at 10 µM (OVCAR-4): 4.68%
inhibition of growth at 10 µM (HCT-15): 2.95%
inhibition of growth at 10 µM (UACC-62): -6.27%
inhibition of growth at 10 µM (SF-295): 0.13%
inhibition of growth at 10 µM (LOX IMVI): -0.17%
inhibition of growth at 10 µM (NCI-H23): 4.61%
inhibition of growth at 10 µM (SN12C): 4.5%
inhibition of growth at 10 µM (RPMI-8226): 15%
inhibition of growth at 10 µM (SK-MEL-5): 16.6%
inhibition of growth at 10 µM (M14): -6.04%
inhibition of growth at 10 µM (CCRF-CEM): 21.8%
inhibition of growth at 10 µM (HCT-116): 9.11%
inhibition of growth at 10 µM (ACHN): -0.81%
inhibition of growth at 10 µM (RXF 393): 4.81%
inhibition of growth at 10 µM (HT-29): -6.9%
inhibition of growth at 10 µM (K562): 21.3%
inhibition of growth at 10 µM (MDA-MB-435): -3.52%
inhibition of growth at 10 µM (MDA-MB-231): 6.18%
inhibition of growth at 10 µM (SF-268): 10.9%
inhibition of growth at 10 µM (OVCAR-8): 4.11%
inhibition of growth at 10 µM (UO-31): 15.5%
inhibition of growth at 10 µM (T47D): 29.4%
inhibition of growth at 10 µM (MOLT-4): 47.5%
inhibition of growth at 10 µM (SNB-19): 5.55%
inhibition of growth at 10 µM (HL-60(TB)): 5.84%
inhibition of growth at 10 µM (SR): 15.2%
inhibition of growth at 10 µM (HOP-92): 32.6%
inhibition of growth at 10 µM (DU-145): 2.58%
inhibition of growth at 10 µM (BT-549): -3.83%
inhibition of growth at 10 µM (TK-10): -13.3%
inhibition of growth at 10 µM (SK-OV-3): -10.3%
inhibition of growth at 10 µM (KM12): 0.88%
inhibition of growth at 10 µM (U-251): 8.34%
inhibition of growth at 10 µM (SK-MEL-28): -15.4%
inhibition of growth at 10 µM (UACC-257): -12.4%
inhibition of growth at 10 µM (MCF7): 44.5%
inhibition of growth at 10 µM (HOP-62): -12.7%
inhibition of growth at 10 µM (PC-3): 28.6%
inhibition of growth at 10 µM (A549): 2.72%
inhibition of growth at 10 µM (HCC 2998): -1.9%
inhibition of growth at 10 µM (SNB-75): 9.83%

O=C(CNc1nc2ccccc2s1)Nc1ccc(-c2nc3ccccc3s2)cc1
inhibition of growth at 10 µM (NCI-H522): 8.76%
inhibition of growth at 10 µM (SF-539): -7.1%
inhibition of growth at 10 µM (MDA-MB-468): 118%
inhibition of growth at 10 µM (OVCAR-4): -1.76%
inhibition of growth at 10 µM (HCT-15): -4.63%
inhibition of growth at 10 µM (UACC-62): 5.38%
inhibition of growth at 10 µM (SF-295): -7.45%
inhibition of growth at 10 µM (LOX IMVI): 24.2%
inhibition of growth at 10 µM (NCI-H23): 11.2%
inhibition of growth at 10 µM (SN12C): -2.68%
inhibition of growth at 10 µM (RPMI-8226): -7.46%
inhibition of growth at 10 µM (SK-MEL-5): -2.93%
inhibition of growth at 10 µM (M14): -15.4%
inhibition of growth at 10 µM (CCRF-CEM): -10.5%
inhibition of growth at 10 µM (HCT-116): 1.08%
inhibition of growth at 10 µM (ACHN): -6.65%
inhibition of growth at 10 µM (RXF 393): -12.5%
inhibition of growth at 10 µM (HT-29): -8.9%
inhibition of growth at 10 µM (K562): 4.87%
inhibition of growth at 10 µM (MDA-MB-435): -8.66%
inhibition of growth at 10 µM (MDA-MB-231): 0.75%
inhibition of growth at 10 µM (SF-268): 7.92%
inhibition of growth at 10 µM (OVCAR-8): -2.25%
inhibition of growth at 10 µM (UO-31): 19.5%
inhibition of growth at 10 µM (T47D): 26.1%
inhibition of growth at 10 µM (MOLT-4): 15.8%
inhibition of growth at 10 µM (SNB-19): -0.11%
inhibition of growth at 10 µM (HL-60(TB)): 0.87%
inhibition of growth at 10 µM (SR): 8.72%
inhibition of growth at 10 µM (HOP-92): 0.18%
inhibition of growth at 10 µM (DU-145): -5.64%
inhibition of growth at 10 µM (BT-549): -6.3%
inhibition of growth at 10 µM (TK-10): 3.3%
inhibition of growth at 10 µM (SK-OV-3): -7.21%
inhibition of growth at 10 µM (KM12): 0.84%
inhibition of growth at 10 µM (U-251): 10.9%
inhibition of growth at 10 µM (SK-MEL-28): -13.3%
inhibition of growth at 10 µM (UACC-257): -1.9%
inhibition of growth at 10 µM (MCF7): 75.2%
inhibition of growth at 10 µM (HOP-62): -4.25%
inhibition of growth at 10 µM (PC-3): 4.99%
inhibition of growth at 10 µM (A549): -0.04%
inhibition of growth at 10 µM (HCC 2998): 7.87%
inhibition of growth at 10 µM (SNB-75): 1.04%
